Experimental data: patent US7459284B2, “Chemiluminescent acridinium compounds and analogues thereof as substrates of hydrolytic enzymes” (Siemens Healthcare Diagnostics Inc., priority 1999, dated 2008)

Experiments:
alkaline phosphatase [1] = target: T1, alkaline phosphatase (Bos taurus, UniProt P19111); assay: Alkaline phosphatase assay using 4′-Phos-AE (17) as chemiluminescent substrate; assay type: biochemical; conditions: 0.1 mM substrate, pH 9 Tris, 3-4 hours room temperature; 0.1 ml reaction volume; measuring time 0.3 s
T1 sequence (P19111 20-506): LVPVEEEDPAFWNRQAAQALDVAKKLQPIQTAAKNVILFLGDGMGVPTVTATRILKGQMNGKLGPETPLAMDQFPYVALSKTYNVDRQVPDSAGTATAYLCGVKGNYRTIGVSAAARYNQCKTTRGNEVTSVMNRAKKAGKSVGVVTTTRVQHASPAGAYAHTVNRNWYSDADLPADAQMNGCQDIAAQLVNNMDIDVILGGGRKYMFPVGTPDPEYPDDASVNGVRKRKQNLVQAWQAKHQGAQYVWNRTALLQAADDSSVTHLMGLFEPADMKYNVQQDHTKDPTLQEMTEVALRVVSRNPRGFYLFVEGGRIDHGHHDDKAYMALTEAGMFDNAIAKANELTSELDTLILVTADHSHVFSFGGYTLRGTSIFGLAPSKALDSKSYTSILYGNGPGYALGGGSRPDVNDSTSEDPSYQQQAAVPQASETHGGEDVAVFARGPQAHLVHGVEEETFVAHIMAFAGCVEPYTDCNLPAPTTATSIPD
Experimental: Treatment of a solution of 4′-Phos-AE (17, 0.1 mM,) in 100 mM Tris pH 9, 1 mM MgCl2 with varying concentrations of alkaline phosphatase was carried out. The reactions were incubated for 3-4 hours at room temperature and were then sequentially diluted 10^4-fold into ‘flash buffer’ which contains 10 mM phosphate pH 8 with 150 mM NaCl, 0.1% BSA and 0.05% sodium azide. Chemiluminescence of a 25 μL solution was measured on a Bayer Diagnostics' Magic Lite Ananlyzer (MAL1) equipped with a BG38 filter. A measuring time of 0.3 s was employed. Evaluation of the chemiluminescent activity of the reactions indicated a steady decrease in total chemiluminesence with increasing concentrations of enzyme. Thus, as the concentration of enzyme is increased, a greater proportion of the fast-emitting substrate 4′-Phos-AE is converted to the slow-emitting product 4′-OH-AE (18) leading to an overall decrease in light output (at a short measuring time). Alkaline phosphatase was easily detected at 5×10^−17 moles (0.1 ml reaction volume) in this assay.

alkaline phosphatase [2] = target: T1, alkaline phosphatase; assay: Enzymatic conversion of substrate by alkaline phosphatase (HPLC analysis); assay type: biochemical; conditions: alkaline aqueous medium; about 1 hour
Experimental: A 1 mM DMF solution of the acridinium 3-enol-phosphate (13) was mixed with 150 μL of 100 mM Tris pH 9 also containing 1 mM MgCl2. Alkaline phosphatase (5 μl of a 2 mg/ml solution) was added and the reaction was incubated at room temperature for ˜1 hour. […] The product was isolated by semi-preparative HPLC using a 7.8×300 mm, C18 column. MALDI-TOF MS of the product indicated this was indeed the keto product (14): m/z 521.36 obs. (520.56 calc.).
A 20 μL DMF solution of the acridan (15) (1.7 mM) was combined with 180 μl of 0.15 M 2-amino-2-methyl-1-propanol pH 10.3 also containing 1 mM magnesium acetate. A clear blue solution was obtained (0.17 mM substrate), which was then treated with alkaline phosphatase (10^−10 moles). The blue color was discharged instantly. […] The reaction mixture was then evaluated by the FSSS to determine the light emission spectrum of the product, which is shown in FIG. 2N. The product was isolated by semi-preparative HPLC. […] (521.56 calc.).

[3] = Light emission kinetics of substrate vs product; assay type: physicochemical; conditions: short measuring times (0.5-0.3 s)
Source text: One of the more preferred chemiluminescent acridinium substrates of Formula XIII is compound 4′-Phos-AE (17).

[4] = Light emission spectra by Fast Spectral Scanning System (FSSS); assay type: physicochemical
Experimental: The light emission spectra of compounds 1˜12 and 15˜18 were determined by a Fast Spectral Scanning System (FSSS) of Photo Research (a division of Kollmorgen Corp.) of Burbank, Calif., U.S.A. The experiment was carried out in a dark room. Each compound was dissolved in acetonitrile or N,N-dimethylformamide. The resulting concentrate was diluted with the same solvent to form the working solution, which upon flashing gave a light emission with an adequate intensity. A typical experiment utilized 10˜100 μg or more of the sample in 500 μl of the solvent contained in a 13×100 mm borosilicate test tube. The tube was placed on a test tube rack raised to a proper height. A piece of aluminum foil was placed on the back of the tube to enhance the detectability of the emitted light. The FSSS optical head was placed in front of the tube at an approximate distance of about 130 mm with its lens focused on the liquid in the tube. The sample solution was first treated with 0.35 ml of the Flashing Reagent #1 (Bayer Diagnostics) containing 0.1 N HNO3 and 0.5% H2O2. The room was then darkened, and 0.35 ml of the Flashing Reagent #2 (Bayer Diagnostics) containing 0.25 N NaOH and 0.5% ARQUAD was added to the reaction mixture immediately. (See U.S. Pat. No. 4,927,769, which is commonly assigned and incorporated herein by reference.) The light which was generated instantaneously following the addition of the Reagent #2 was recorded by FSSS for 5 seconds starting from about one second before the Reagent #2 was added.

## C[n+]1c2ccccc2c(C(=O)Oc2ccc(OP(=O)(O)O)cc2)c2ccccc21 [Compound 17, 4′-phosphophenyl 10-methyl acridinium-9-carboxylate trifluoromethanesulfonate]
Alkaline phosphatase [1]
  level of alkaline phosphatase detected: 5e-17 mol
Alkaline phosphatase [2]
  conversion by alkaline phosphatase: readily converted
[3]
  speed of light emission relative to product 18: ~190 times
[4]; FSSS, hydrogen peroxide in strong alkaline solution
  Emission Maximum: 436 nm
[4]; spectral region with signal intensity above 5% of peak height, FSSS scanning limit 380-780 nm, flashed with 0.1 N HNO3/0.5% H2O2 then 0.25 N NaOH/0.5% ARQUAD
  Emission Range: 410-540 nm
